This is an account of results in patent publication US10745414B2, “Crystal salt form of 2,2-dimethyl-6-((4-((3,4,5-trimethoxyphenyl)amino)-1,3,5-triazine-2-yl)amino)-2H-pyrido[3,2-b][1,4]oxazine-3(4H)-one for human use” (LIMITED “MOLECULAR TECHNOLOGIES”, priority 2016, dated 2020).

The Cmax is the maximum level reached in the sampled fluid or tissue.

The nature of series [1]: pharmacokinetics in blood plasma after oral administration in Wistar rats. The following applies: rat, in vivo. As for the experimental part:
At the first stage, pharmacokinetics of the Compound 1 free base was studied after oral administration in Wistar rats at dosage of 30 mg/kg.
Pharmacokinetics of several Compound 1 salt forms was studied after oral administration in Wistar rats at a dose of 37 mg/kg (30 mg/kg equivalent to a free base).

Series [2] in a line: pharmacokinetics in rabbits at single administration. The series is classed as in vivo. The following applies: 50 mg/kg.
In series [3] the test system is Sprague-Dawley rat models of osteoarthritis induced by intra-articular introduction of sodium iodoacetate. Kind of series: mechanical allodynia test with von Frey filaments in osteoarthritis induced by sodium iodoacetate. The series is classed as in vivo. As for the experimental part: The intra-articular introduction of aerobic glycolysis inhibitor (sodium iodoacetate) results in death of chondrocytes and acute inflammatory reaction in a synovial cavity. In absence of treatment, at day 10 from the pathology induction an onset of chronic pain is observed due to cartilage destruction and development of chronic inflammation in particular cases [J Musculoskel Neuron Interact 2001; 1(4):363-376]. Extent of osteoarthritis development in rats was evaluated by comparison of extremity pain sensitivity threshold after the introduction of sodium iodoacetate versus background measurements taken before the pathology induction. The threshold of the pain sensitivity was evaluated by mechanical allodynia test using von Frey filaments (see Table 8).
For the purposes of the study, rat males weighing 150 to 200 g were selected. All the animals underwent acclimatization for 14 days. The animals were housed in a polycarbonate cages of 3H type manufactured by Charles River laboratories Inc according to COST R 53434-2009. 12-hours lighting regimen was maintained. The animals had access to food and water ad libitum. The pathology was induced by introduction of 50 μl solution containing 2 mg of sodium iodoacetate into a synovial cavity of the animal knee joints. Tactile allodynia induced by a mechanical irritation was evaluated using von Frey filaments weighing 0.06 to 23.96 g. The test was repeated five times for each filament at intervals of 1 to 2 s. The sensitivity threshold was considered as a minimum reaction threshold provoking paw withdrawal in one of five repeats.

The subject of another series is mature human osteoclasts. Nature of the series: osteoclast-mediated resorption of mineralized matrix. The series is classed as cell-based. The note with it: 1.1 μM and 10 μM, 48 hours. As for the experimental part:
The study was carried out following the method below: CD15+ monocytes (osteoclast precursor cells) were cultivated for 3 days in a proliferation medium (Igla α-modified minimum essential medium/fetal calf serum (aMEM/FCS), 10% with 25 ng/ml of macrophage colony-stimulating factor (M-CSF)). During this stage M-CSF promoted proliferation and expression of a receptor activator of nuclear factor KB (RANK, cappa-B, type I membrane protein). The proliferation medium was removed and cells were differentiated in a differentiation medium (aMEM/FCS-10% with 100 ng/ml of RANKL and 25 ng/ml of M-CSF). When mature osteoclasts were detected in the culture (day 4 of the study), the cells were collected and re-inoculated into a 96-well plate coated with a synthetic mineralized matrix. Cultivation continued for 48 hours (at presence of the studied compounds) to evaluate osteoclast resorption. Then number of mature osteoclasts and the resorption degree were evaluated. An effect of 4-methylbenzenesulfonic acid and Compound 1 salt concentration on concentration and resorption degree of mature osteoclasts was evaluated in comparison with control samples ([…] control, 0.3% DMSO solvent) and reference inhibitors, i.e., saracatinib and bosutinib (see FIG. 18).

The nature of series [4]: pharmacokinetics in blood plasma after oral administration in Wistar rats. The following applies: rat, in vivo, 21 mg/kg.
Series [5] is described as follows: distribution across organs and tissues in rats. The series is classed as in vivo. As for the experimental part:
When the 4-methylbenzenesulfonic acid and Compound 1 salt hydrate is administered intragastrically at dosages 30 to 200 mg/kg, the Compound 1 concentration in rat blood plasma increases in proportion to the dose. High concentrations of the Compound 1 was found almost in all the tissues studied and reached maximum at 2 to 4 hours after 4-methylbenzenesulfonic acid and Compound 1 salt hydrate administration.

On to `COc1cc(Nc2ncnc(Nc3ccc4c(n3)NC(=O)C(C)(C)O4)n2)cc(OC)c1OC.Cc1ccc(S(=O)(=O)O)cc1.O` [monohydrate of 4-methylbenzenesulfonic acid and 2,2-dimethyl-6-((4-((3,4,5-trimethoxyphenyl)amino)-1,3,5-triazine-2-yl)amino)-2H-pyrido[3,2-b][1,4]oxazine-3(4H)-one base], for which the “time of reaching maximum concentration in blood” value in series [1] was 1.1 to 1.3 h. In addition, the elimination half-time entry in series [2] is given as “more than 7 hours”. For the same compound, the “Reaction threshold value, % of control” value is given as 106 % of control in series [3] (100 mg/kg intragastric, days 0-28 (daily), day 14 from pathology induction); 80 % of control in series [3] (100 mg/kg intragastric, days 0-28 (daily), day 21); 106 % of control in series [3] (100 mg/kg intragastric, days 0-28 (daily), day 28); 70 % of control in series [3] (100 mg/kg intragastric, days 7-28 (daily), day 14); 75 % of control in series [3] (100 mg/kg intragastric, days 7-28 (daily), day 21); 73 % of control in series [3] (100 mg/kg intragastric, days 7-28 (daily), day 28). Also, the “Reaction threshold value, % of control” value in series [3] (500 mg/kg intragastric, days 0-28 (daily), day 14) is listed as 114 % of control; in series [3] (500 mg/kg intragastric, days 0-28 (daily), day 21) it was 106 % of control; in series [3] (500 mg/kg intragastric, days 0-28 (daily), day 28) it was 107 % of control; in series [3] (500 mg/kg intragastric, days 7-28 (daily), day 14), 76 % of control; in series [3] (500 mg/kg intragastric, days 7-28 (daily), day 21), 91 % of control; in series [3] (500 mg/kg intragastric, days 7-28 (daily), day 28), 118 % of control. Further, in series [3] (100 and 500 mg/kg from day of pathology induction, 500 mg/kg from the seventh day), the mechanical allodynia onset result is “Total arrest of mechanical allodynia onset”. Besides, in the series on mature human osteoclasts, the “effect on osteoclast-mediated resorption of the mineralized matrix” value is recorded as “profound statistically significant inhibitory effect”. In series [4], this compound displayed a Cmax of 416 ng/mL. Also, in series [5], the “tissue with lowest concentration” value is reported as “lowest concentration of the Compound 1 was registered in muscles”. Moreover, in series [5] (intragastric), the “daily average concentration in bone and cartilage tissues versus daily average concentration in blood plasma” value was “more than three times”.
